In publication PMC5051273 (Phytotherapy research : PTR, 2015) one finds IC50 data, which are given here for one compound.

In this assay the target is mammalian target of rapamycin (mTOR) (Homo sapiens, UniProt P42345). Kind of assay: Invitrogen Z'-LYTE kinase assay, five concentrations. In kind it is biochemical.

Consider `C/C=C(/C=O)[C@@H](CC=O)CC(=O)OCCc1ccc(O)cc1` [oleocanthal], for which the IC50 was 708 nM.

What is called IC50 is the point on the concentration scale where inhibition reaches its midpoint. A lower IC50 goes with inhibition by little substance.
